Experimental data from PubChem BioAssay AID248 (DTP/NCI, 2004).
“And” between values parts separate entries of the source, which are not always exact repeats. Equal values may be shown once. Toxic doses and inconclusive results are not listed. No stated cut-off is given here; in the data, active means T/C of 150% or more; inactive means T/C below 125%.

Test system: L1210 leukemia ip in BDF1 mice, survival T/C
Experiment: NCI In Vivo Anticancer Drug Screen. Data for tumor model L1210 Leukemia (intraperitoneal) in B6D2F1 (BDF1) mice
Conditions: endpoint: mean survival time, higher = longer survival
How it was run: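 Ratio derived from survival: compound-dosed mice over vehicle-dosed mice, all bearing a transplantable tumor.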

[1] = dose: 100.0 mg/kg/injection, schedule: Q01DX001 (ip), vehicle: saline
[2] = dose: 200.0 mg/kg/injection, schedule: Q01DX001 (ip), vehicle: saline
[3] = dose: 400.0 mg/kg/injection, schedule: Q01DX001 (ip), vehicle: saline
[4] = dose: 100.0 mg/kg/injection, schedule: Q01DX001 (ip), vehicle: carboxymethylcellulose (CMC)
[5] = dose: 200.0 mg/kg/injection, schedule: Q01DX001 (ip), vehicle: carboxymethylcellulose (CMC)
[6] = dose: 400.0 mg/kg/injection, schedule: Q01DX001 (ip), vehicle: carboxymethylcellulose (CMC)
[7] = dose: 100.0 mg/kg/injection, schedule: Q04DX003 (ip), vehicle: saline with Tween-80
[8] = dose: 200.0 mg/kg/injection, schedule: Q04DX003 (ip), vehicle: saline with Tween-80
[9] = dose: 400.0 mg/kg/injection, schedule: Q04DX003 (ip), vehicle: saline with Tween-80
[10] = dose: 100.0 mg/kg/injection, schedule: Q04DX002 (ip), vehicle: Klucel (hydroxypropylcellulose) (HPC)
[11] = dose: 200.0 mg/kg/injection, schedule: Q04DX002 (ip), vehicle: Klucel (hydroxypropylcellulose) (HPC)
[12] = dose: 100.0 mg/kg/injection, schedule: Q01DX009 (ip), vehicle: saline with Tween-80
[13] = dose: 100.0 mg/kg/injection, schedule: Q01DX009 (ip), vehicle: Klucel (hydroxypropylcellulose) (HPC)
[14] = dose: 200.0 mg/kg/injection, schedule: Q01DX009 (ip), vehicle: Klucel (hydroxypropylcellulose) (HPC)
[15] = dose: 100.0 mg/kg/injection, schedule: Q04DX003 (ip), vehicle: Klucel (hydroxypropylcellulose) (HPC)
[16] = dose: 200.0 mg/kg/injection, schedule: Q04DX003 (ip), vehicle: Klucel (hydroxypropylcellulose) (HPC)

Measured: T/C

Oc1ccc[n+](CCCl)c1
inactive: dose: 6.25 mg/kg/injection, schedule: Q01DX015 (ip), vehicle: saline 96 % of control | dose: 12.5 mg/kg/injection, schedule: Q01DX015 (ip), vehicle: saline 100 % of control | dose: 25.0 mg/kg/injection, schedule: Q01DX015 (ip), vehicle: saline 104 % of control | dose: 50.0 mg/kg/injection, schedule: Q01DX015 (ip), vehicle: saline 100 % of control | dose: 100.0 mg/kg/injection, schedule: Q01DX015 (ip), vehicle: saline 100 % of control | dose: 200.0 mg/kg/injection, schedule: Q01DX015 (ip), vehicle: saline 96 % of control | dose: 300.0 mg/kg/injection, schedule: Q01DX015 (ip), vehicle: saline 100 % of control

C(=N\Nc1nnc(N/N=C/c2cccc3ccccc23)c2ccccc12)/c1cccc2ccccc12
inactive: dose: 50.0 mg/kg/injection, schedule: Q01DX001 (ip), vehicle: saline 92 % of control | [1] 92 % of control | [2] 92 % of control | [3] 92 % of control

CCC1CN1P1(=O)OCC(C)(N)CO1 (stereo not given)
inactive: [4] 104 % of control | [5] 101 % of control | [6] 101 % of control

Oc1ccc(N=Nc2ccccc2)c(O)c1.Oc1ccc(N=Nc2ccccc2)c(O)c1.[Cu]
inactive: dose: 50.0 mg/kg/injection, schedule: Q01DX001 (ip), vehicle: carboxymethylcellulose (CMC) 90 % of control | [6] 87 % of control

S=P(NC1CCCCC1)(NC1CCCCC1)NC1CCCCC1
inactive: [1] 95 % of control | [7] 101 % of control | [2] 95 % of control | [8] 97 % of control | [3] 90 % of control | [9] 97 % of control

CC(C)c1ccc(/C=C2\C=Nc3ccccc32)cc1
inactive: dose: 100.0 mg/kg/injection, schedule: Q04DX002 (ip), vehicle: gum acacia 95 % of control | dose: 200.0 mg/kg/injection, schedule: Q04DX002 (ip), vehicle: gum acacia 92 % of control | dose: 400.0 mg/kg/injection, schedule: Q04DX002 (ip), vehicle: gum acacia 95 % of control

CCOC(=O)NC1c2ccccc2Oc2ccccc21
inactive: dose: 75.0 mg/kg/injection, schedule: Q01DX009 (ip), vehicle: saline 115 % of control | [10] 102 % of control | dose: 150.0 mg/kg/injection, schedule: Q01DX009 (ip), vehicle: saline 103 % of control | [11] 105 % of control | dose: 300.0 mg/kg/injection, schedule: Q01DX009 (ip), vehicle: saline 111 % of control | dose: 400.0 mg/kg/injection, schedule: Q04DX002 (ip), vehicle: Klucel (hydroxypropylcellulose) (HPC) 102 % of control

O=c1cc(-c2c(O)cc(O)cc2O)oc2cc(O)cc(O)c12
inactive: [4] 94 % of control | [5] 94 % of control | [6] 92 % of control

COC1OC(CI)C(OS(C)(=O)=O)C(OC(=O)c2ccccc2)C1OC(=O)c1ccccc1 (stereo not given)
inactive: [10] 91 % of control | [11] 97 % of control

COc1ccccc1/C=C/C(=O)c1ccccc1
inactive: [12] 89 % of control | [7] 98 % of control | [8] 94 % of control | dose: 400.0 mg/kg/injection, schedule: Q01DX009 (ip), vehicle: saline with Tween-80 89 % of control | [9] 96 % of control

O=C(O)c1cccc(C(=O)Oc2ccccc2-c2ccccc2)c1
inactive: dose: 50.0 mg/kg/injection, schedule: Q01DX009 (ip), vehicle: saline with Tween-80 94 % of control | [12] 87 % of control | dose: 200.0 mg/kg/injection, schedule: Q01DX009 (ip), vehicle: saline with Tween-80 94 % of control

Cc1c(N)cc([N+](=O)[O-])c(C)c1[N+](=O)[O-]
inactive: dose: 50.0 mg/kg/injection, schedule: Q04DX003 (ip), vehicle: saline with Tween-80 100 % of control | [7] 96 % of control | [8] 100 % of control

CCOC(=O)c1c(-c2ccc([N+](=O)[O-])cc2)c(/C=N\O)n(-c2ccccc2)c1C
inactive: [10] 87 % of control | [11] 94 % of control

O=P1(Cc2ccccc2)CC(Br)C(Br)C1 (stereo not given)
inactive: dose: 100.0 mg/kg/injection, schedule: Q04DX003 (ip), vehicle: other 101 % of control | dose: 200.0 mg/kg/injection, schedule: Q04DX003 (ip), vehicle: other 101 % of control | dose: 400.0 mg/kg/injection, schedule: Q04DX003 (ip), vehicle: other 101 % of control

COc1ccc2c(=O)c3ccccc3oc2c1
inactive: dose: 100.0 mg/kg/injection, schedule: Q04DX003 (ip), vehicle: saline 101 % of control | dose: 200.0 mg/kg/injection, schedule: Q04DX003 (ip), vehicle: saline 101 % of control | dose: 400.0 mg/kg/injection, schedule: Q04DX003 (ip), vehicle: saline 103 % of control

O=C1CC(=O)C(Cl)=C1Cl
inactive: dose: 15.0 mg/kg/injection, schedule: Q01DX001 (ip), vehicle: carboxymethylcellulose (CMC) 93 % of control

COc1cccc(C(c2ccccc2)C(CC(=O)O)CC(=O)O)c1 (stereo not given)
inactive: dose: 75.0 mg/kg/injection, schedule: Q04DX002 (ip), vehicle: Klucel (hydroxypropylcellulose) (HPC) 101 % of control | dose: 150.0 mg/kg/injection, schedule: Q04DX002 (ip), vehicle: Klucel (hydroxypropylcellulose) (HPC) 108 % of control | dose: 300.0 mg/kg/injection, schedule: Q04DX002 (ip), vehicle: Klucel (hydroxypropylcellulose) (HPC) 97 % of control

O=c1c(-c2ccccc2)coc2ccccc12
inactive: [7] 97 % of control | [8] 92 % of control | [9] 90 % of control

COc1ccccc1/C=C(\S)C(=O)O
inactive: [1] 103 % of control | [2] 97 % of control | [3] 97 % of control

O=C(O)c1c(Cl)nsc1Cl
inactive: [13] 98 % of control | [14] 98 % of control

C=CCc1cc(OC)c(OCc2ccccc2)cc1[N+](=O)[O-]
inactive: dose: 100.0 mg/kg/injection, schedule: Q04DX002 (ip), vehicle: saline with Tween-80 101 % of control | dose: 200.0 mg/kg/injection, schedule: Q04DX002 (ip), vehicle: saline with Tween-80 87 % of control | dose: 400.0 mg/kg/injection, schedule: Q04DX002 (ip), vehicle: saline with Tween-80 90 % of control

CCCCCCCCCCCC(=O)NN
inactive: dose: 18.8 mg/kg/injection, schedule: Q01DX009 (ip), vehicle: carboxymethylcellulose (CMC) 105 % of control | dose: 37.5 mg/kg/injection, schedule: Q01DX009 (ip), vehicle: carboxymethylcellulose (CMC) 96 % of control | dose: 75.0 mg/kg/injection, schedule: Q01DX009 (ip), vehicle: carboxymethylcellulose (CMC) 109 % of control and 114 % of control | [1] 98 % of control | [2] 104 % of control | [3] 106 % of control

CC1(C)C2CC3C(C(=O)O)CCCC3(C2)C1Br (stereo not given)
inactive: [13] 103 % of control | [15] 87 % of control | [14] 106 % of control | [16] 90 % of control | dose: 400.0 mg/kg/injection, schedule: Q01DX009 (ip), vehicle: Klucel (hydroxypropylcellulose) (HPC) 97 % of control | dose: 400.0 mg/kg/injection, schedule: Q04DX003 (ip), vehicle: Klucel (hydroxypropylcellulose) (HPC) 89 % of control

CCS(=O)(=O)C(=CN(C)C)S(=O)(=O)CC
inactive: dose: 75.0 mg/kg/injection, schedule: Q04DX003 (ip), vehicle: saline 97 % of control | dose: 150.0 mg/kg/injection, schedule: Q04DX003 (ip), vehicle: saline 97 % of control | dose: 300.0 mg/kg/injection, schedule: Q04DX003 (ip), vehicle: saline 92 % of control

Cc1ccc(S(=O)(=O)OC23CCC(C)(CC2)C2(C3)OCCO2)cc1
inactive: dose: 100.0 mg/kg/injection, schedule: Q04DX002 (ip), vehicle: saline 95 % of control | dose: 200.0 mg/kg/injection, schedule: Q04DX002 (ip), vehicle: saline 98 % of control | dose: 400.0 mg/kg/injection, schedule: Q04DX002 (ip), vehicle: saline 98 % of control

CC(=O)Oc1c(C2CCCCC2)cc([N+](=O)[O-])cc1[N+](=O)[O-]
inactive: [15] 94 % of control | [16] 101 % of control
